Here are results for one compound from patent publication US10864182B2, “Treatment of fragile X syndrome” (Healx Limited, priority 2018, dated 2020).

Common to all, as to type: in vivo
Experiment [1] deals with Fmr1 KO2 mice. Kind of experiment: Contextual fear conditioning. Conditions: 5 mg/kg by subcutaneous osmotic minipump, 15 days, KO not different from WT. An excerpt: (§1) Fmr1 knockout 2 (Fmr1 KO2) mice were generated by deletion of the promoter and first exon of Fmr1. The Fmr1 KO2 it is both, protein and mRNA null. In this study we used Fmr1 KO2 and wild-type (WT) littermates generated on a C57BL/6J background and repeatedly backcrossed onto a C57BL/6J background for more than eight generations.
(§2) There were four treatment groups per compound in the study with 10 male mice used per treatment group (all at 8 weeks of age): Group 1: Fmr1 KO2 mice treated with vehicle (Fmr1 KO2-V), Group 2: wild-type littermate mice treated with vehicle (WT-V), Group 3: Fmr1 KO2 mice treated with sulindac (Fmr1 KO-Sulindac) and Group 4: wild-type littermate mice treated with sulindac (WT-Sulindac)
(§3) Sulindac: 5 mg/kg by osmotic minipumps (ALZET Osmotic Pumps Cupertino, Calif., USA) implanted subcutaneously for 15 days delivery.
For experiments, all mice were tested once in the same apparatus. Prior to testing, mice were placed in the apparatus for some minutes before the experiment. The apparatus was cleaned with moist and dry tissues before testing each mouse. […] We assessed weight loss, fur loss, walking, eyes open, eye discharges and general behavior. […]
(§4) Data were analyzed by two-way analysis of variance (ANOVA) followed by post-test comparisons where appropriate using Tukey's Multiple Comparison Test. […]

Experiment [2] relates to Fmr1 KO2 mice. Briefly: Three-chambered sociability task (social interaction). The note with it: 5 mg/kg by subcutaneous osmotic minipump, 15 days.
From the text: as §1, §2, §3
(§5) For experiments, all mice were tested once in the same apparatus. […] We assessed weight loss, fur loss, walking, eyes open, eye discharges and general behavior.
In the three-chambered sociability task, a subject mouse was evaluated for its exploration of a novel social stimulus (novel mouse). […] The time spent exploring the novel mice was scored as exploration ratio.
as §4

The subject of experiment [3] is Fmr1 KO2 mice. Kind of experiment: Open field (hyperactivity). Conditions: 5 mg/kg by subcutaneous osmotic minipump, 15 days chronic treatment, 3 min observation.
From the text: as §1
There were four treatment groups per compound in the study with 10 male mice used per treatment group (all at 8 weeks of age): Group 1: Fmr1 KO2 mice treated with vehicle (Fmr1 KO2-V), Group 2: wild-type littermate mice treated with vehicle (WT-V), Group 3: Fmr1 KO2 mice treated with sulindac (Fmr1 KO-Sulindac) and Group 4: wild-type littermate mice treated with sulindac (WT-Sulindac) […]
as §5
The open-field apparatus was used to test hyperactivity. […] The number of squares entered by the whole body (locomotor activity) was counted. The movement of the mouse around the field was recorded with a video tracking device for 3 min (version NT4.0, Viewpoint).
as §4

Experiment [4] relates to Fmr1 KO2 mice. Briefly: Nesting. Conditions: 5 mg/kg by subcutaneous osmotic minipump, 15 days, listed as sulindac.
From the text: as §1, §2, §3, §5
The test was performed in individual cages. […] Mice were placed individually into the nesting cages 1 hr. before the dark phase, and the results were assessed the next morning. Nest building was scored on a 5 point scale. […]
as §4

Molecules are shown by their SMILES. “Also recorded” adds a separate entry of the source.

`CC1=C(CC(=O)O)c2cc(F)ccc2/C1=C\c1ccc([S+](C)[O-])cc1` (stereo not drawn) [Sulindac, (Z)-5-fluoro-2-methyl-1-[[p-(methylsulfinyl)phenyl]methylene]-1H-indene-3-acetic acid]: the “freezing in contextual memory test (learning and memory)” value was “ameliorates the Fmr1 KO deficit in learning and memory” in the experiment on Fmr1 KO2 mice [1] (p=0.3968); “partially rescuing” with Fmr1 KO2 mice [1] (p=0.3968, listed as sulindac). For the same compound, the entries for the “sociability (exploration index of the novel mouse)” value in the experiment on Fmr1 KO2 mice [2] and with Fmr1 KO2 mice [2] (listed as sulindac) were “partially improved such impairment” and “partially rescuing”, respectively. The “hyperactivity in open field (locomotor activity, number of squares entered)” value in the experiment on Fmr1 KO2 mice [3] is on record as “fully rescuing; also recorded: normalizes hyperactivity”. In addition, in the experiment with Fmr1 KO2 mice [4], the “nesting behavior (nest building score, 5 point scale)” value was “fully rescuing; also recorded: normalization in nesting behavior”.
